Data published in patent US20100285959A1, “HERBICIDAL MIXTURES” (priority 2006, published 2010).

How the values were obtained:
wild poinsettia (EPHHL) = test: Test 12 field trial, preemergence; assay type: in vivo, Euphorbia heterophylla; set-up: scale not given here; details: Cpd 2 or Cpd 1 62 g a.i./ha, Diuron 2000 g a.i./ha
Text: In early-mid spring season, corn seeds (hybrid ‘Pioneer 3041’) were planted 5 cm deep and sugarcane nodes (variety RB-72.454) were planted 10 cm deep in separate plots in a clay soil having 2.6% organic matter and a pH of 5.6. Plots were 24 m long by 1.5 m wide with rows spaced 80 cm (corn) or 140 cm (sugarcane) apart. Corn seeds were spaced 15 cm apart and sugarcane nodes were spaced 10 cm apart within the rows. At the same time, weed seeds were broadcast over the surface of separate plots without a crop, one weed species per plot. The weed plots were rotary tilled to incorporate the weed seeds to a variety of depths. The field was managed using conventional tillage practices.

galium (GALAP) = test: Test 21 growth chamber, postemergence; assay type: in vivo, Galium aparine; details: 19 DAA; Cpd 2 alone 16 g a.i./ha
Protocol: (§1) A test was conducted to evaluate the effects on winter barley (HORVW, Hordeum vulgare L.), winter wheat (TRZAW, Triticum aestivum L.), and several weed species, of mixtures of Compound 2 with the commercial herbicide (2,4-dichlorophenoxy)acetic acid (2,4-D), an auxin mimic. […] Plants were treated postemergence at the 2-4 leaf growth stage, and each treatment was replicated one time. […] Plants were watered as needed. […] Results are from single replicates.

yellow nutsedge (CYPES) = test: Test 2 field trial, preemergence; assay type: in vivo, Cyperus esculentus; set-up: scale not given here
Text: (§2) Corn seeds (hybrid ‘Pioneer 31G96’) were planted in mid spring season, 3.8 cm deep in a clay loam soil having 2% organic matter and a pH of 6.6. Plots were 6.1 m long by 3.0 m wide with rows spaced 76 cm apart. Seeds were spaced 15 cm apart within the rows. The field was managed using conventional tillage practices. […] A few of the weed species could not be evaluated at every timing. […] Results are the means of the three replicates.

common ragweed (AMBEL) = test: Test 2 field trial, preemergence; assay type: in vivo, Ambrosia artemisiifolia; set-up: scale not given here
Text: as §2

winter wheat (TRZAW) = test: Test 22 growth chamber, postemergence; assay type: in vivo, Triticum aestivum; details: 25 DAA
Protocol: as §1, with “species” for “species,”, “herbicides” for “herbicide”, “(2,4-D) and (4-chloro-2-methylphenoxy)acetic acid (MCPA),” for “(2,4-D), an”, “mimics.” for “mimic.”, “stage, except KCHSC, SASKR” for “stage,”, “STEME which were in the 4-8 leaf growth stage. Each” for “each”

winter barley (HORVW) = test: Test 20 growth chamber, postemergence; assay type: in vivo, Hordeum vulgare; details: 25 DAA
Protocol: A test was conducted to evaluate the effects on winter barley (HORVW, Hordeum vulgare L.) and winter wheat (TRZAW, Triticum aestivum L.) of mixtures of Compound 2 with the commercial herbicides (2,4-dichlorophenoxy)acetic acid (2,4-D) and (4-chloro-2-methylphenoxy)acetic acid (MCPA), auxin mimics. […] Plants were treated postemergence at the 2-leaf growth stage, and each treatment was replicated a total of four times (three times in the loam/sand blend and one time in RediEarth). […] Plants were watered as needed. […] Results are the means of the four replicates.

giant foxtail (SETFA) = test: Test 3 field trial, emerged weeds before corn planting; assay type: in vivo, Setaria faberi; details: 68 DAA; Cpd 2 100, glyphosate 1540, paraquat 1150 g a.i./ha, alone or combined
Text: Corn seeds (hybrid ‘Pioneer 33J56’) were planted in early spring season, 3.8 cm deep in a silt loam soil having 2.4% organic matter and a pH of 6. Plots were 6.1 m long by 2.7 m wide with rows spaced 91.4 cm apart. The field was managed using no-till practices. […] Compound 2 and paraquat treatments, alone and in combination, also included a surfactant. Glyphosate, alone and with Compound 2, included ammonium sulfate in the treatment mixture. […] The effects on the weeds in the treated plots and untreated control plots were recorded 30, 42, 46 and 68 days after application. Most of the weed species could not be evaluated at every timing. Corn response was not evaluated because the growth was highly variable depending on the efficacy of the weed control treatments. […] Results are the means of the three replicates.

wild mustard (SINAR) [1] = test: Test 22 growth chamber, postemergence; assay type: in vivo, Sinapis arvensis; details: 25 DAA
Protocol: as §1, with “species” for “species,”, “herbicides” for “herbicide”, “(2,4-D) and (4-chloro-2-methylphenoxy)acetic acid (MCPA),” for “(2,4-D), an”, “mimics.” for “mimic.”, “stage, except KCHSC, SASKR” for “stage,”, “STEME which were in the 4-8 leaf growth stage. Each” for “each”

wild mustard (SINAR) [2] = test: Test 21 growth chamber, postemergence; assay type: in vivo, Sinapis arvensis; details: 19 DAA; Cpd 2 alone 16 g a.i./ha
Protocol: as §1

field violet (VIOAR) = test: Test 21 growth chamber, postemergence; assay type: in vivo, Viola arvensis; details: 19 DAA; Cpd 2 alone 16 g a.i./ha
Protocol: as §1

velvetleaf (ABUTH) = test: Test 2 field trial, preemergence; assay type: in vivo, Abutilon theophrasti
Text: as §2

[3] = 18 DAA, g a.i./ha: Cpd 2 25, Atrazine 250
[4] = 18 DAA, g a.i./ha: Cpd 2 50, Atrazine 500
[5] = 18 DAA, g a.i./ha: Cpd 2 75, Atrazine 750
[6] = 18 DAA, g a.i./ha: Cpd 2 100, Atrazine 1000
[7] = 18 DAA, g a.i./ha: Cpd 2 150, Atrazine 1500
[8] = 28 DAA, g a.i./ha: Cpd 2 25, Atrazine 250
[9] = 28 DAA, g a.i./ha: Cpd 2 50, Atrazine 500
[10] = 28 DAA, g a.i./ha: Cpd 2 75, Atrazine 750
[11] = 28 DAA, g a.i./ha: Cpd 2 100, Atrazine 1000
[12] = 28 DAA, g a.i./ha: Cpd 2 150, Atrazine 1500
[13] = 55 DAA, g a.i./ha: Cpd 2 25, Atrazine 250
[14] = 55 DAA, g a.i./ha: Cpd 2 50, Atrazine 500
[15] = 55 DAA, g a.i./ha: Cpd 2 75, Atrazine 750
[16] = 55 DAA, g a.i./ha: Cpd 2 100, Atrazine 1000
[17] = 55 DAA, g a.i./ha: Cpd 2 150, Atrazine 1500

## Nc1nc(C2CC2)nc(C(=O)O)c1Cl [Compound 1, 6-amino-5-chloro-2-cyclopropyl-4-pyrimidinecarboxylic acid]
Wild poinsettia (EPHHL); 15 DAA
  EPHHL Obs: 40
Wild poinsettia (EPHHL); 29 DAA
  EPHHL Obs: 70
Wild poinsettia (EPHHL); 48 DAA
  EPHHL Obs: 50
Wild poinsettia (EPHHL); 61 DAA
  EPHHL Obs: 40

## COC(=O)c1nc(C2CC2)nc(N)c1Cl [Compound 2, methyl 6-amino-5-chloro-2-cyclopropyl-4-pyrimidinecarboxylate]
Galium (GALAP)
  Postemergence GALAP Obs: 90
Yellow nutsedge (CYPES); [3]
  CYPES Obs: 12
Yellow nutsedge (CYPES); [4]
  CYPES Obs: 18
Yellow nutsedge (CYPES); [5]
  CYPES Obs: 22
Yellow nutsedge (CYPES); [6]
  CYPES Obs: 25
Yellow nutsedge (CYPES); [7]
  CYPES Obs: 30
Yellow nutsedge (CYPES); [8]
  CYPES Obs: 0
Yellow nutsedge (CYPES); [9]
  CYPES Obs: 0
Yellow nutsedge (CYPES); [10]
  CYPES Obs: 0
Yellow nutsedge (CYPES); [11]
  CYPES Obs: 0
Yellow nutsedge (CYPES); [12]
  CYPES Obs: 0
Yellow nutsedge (CYPES); [13]
  CYPES Obs: 0
Yellow nutsedge (CYPES); [14]
  CYPES Obs: 0
Yellow nutsedge (CYPES); [15]
  CYPES Obs: 0
Yellow nutsedge (CYPES); [16]
  CYPES Obs: 0
Yellow nutsedge (CYPES); [17]
  CYPES Obs: 10
Wild poinsettia (EPHHL); 15 DAA
  EPHHL Obs: 40
Wild poinsettia (EPHHL); 29 DAA
  EPHHL Obs: 60
Wild poinsettia (EPHHL); 48 DAA
  EPHHL Obs: 40
Wild poinsettia (EPHHL); 61 DAA
  EPHHL Obs: 40
Common ragweed (AMBEL); [3]
  AMBEL Obs: 18
Common ragweed (AMBEL); [4]
  AMBEL Obs: 27
Common ragweed (AMBEL); [5]
  AMBEL Obs: 53
Common ragweed (AMBEL); [6]
  AMBEL Obs: 70
Common ragweed (AMBEL); [7]
  AMBEL Obs: 70
Common ragweed (AMBEL); [8]
  AMBEL Obs: 10
Common ragweed (AMBEL); [9]
  AMBEL Obs: 48
Common ragweed (AMBEL); [10]
  AMBEL Obs: 70
Common ragweed (AMBEL); [11]
  AMBEL Obs: 88
Common ragweed (AMBEL); [12]
  AMBEL Obs: 97
Common ragweed (AMBEL); [13]
  AMBEL Obs: 10
Common ragweed (AMBEL); [14]
  AMBEL Obs: 33
Common ragweed (AMBEL); [15]
  AMBEL Obs: 42
Common ragweed (AMBEL); [16]
  AMBEL Obs: 77
Common ragweed (AMBEL); [17]
  AMBEL Obs: 93
Winter wheat (TRZAW); Cpd 2 alone 4 g a.i./ha
  Postemergence TRZAW Obs: 30
Winter wheat (TRZAW); Cpd 2 alone 8 g a.i./ha
  Postemergence TRZAW Obs: 35
Winter wheat (TRZAW); Cpd 2 alone 16 g a.i./ha
  Postemergence TRZAW Obs: 40
Winter barley (HORVW); Cpd 2 alone 4 g a.i./ha
  Postemergence HORVW Obs: 26
Winter barley (HORVW); Cpd 2 alone 8 g a.i./ha
  Postemergence HORVW Obs: 33
Winter barley (HORVW); Cpd 2 alone 16 g a.i./ha
  Postemergence HORVW Obs: 44
Giant foxtail (SETFA)
  SETFA Obs: 40%
Wild mustard (SINAR) [1]; Cpd 2 alone 4 g a.i./ha
  Postemergence SINAR Obs: 60
Wild mustard (SINAR) [1]; Cpd 2 alone 8 g a.i./ha
  Postemergence SINAR Obs: 65
Wild mustard (SINAR) [1]; Cpd 2 alone 16 g a.i./ha
  Postemergence SINAR Obs: 65
Wild mustard (SINAR) [2]
  Postemergence SINAR Obs: 65
Field violet (VIOAR)
  Postemergence VIOAR Obs: 60
Velvetleaf (ABUTH); [3]
  ABUTH Obs: 13
Velvetleaf (ABUTH); [4]
  ABUTH Obs: 28
Velvetleaf (ABUTH); [5]
  ABUTH Obs: 45
Velvetleaf (ABUTH); [6]
  ABUTH Obs: 45
Velvetleaf (ABUTH); [7]
  ABUTH Obs: 52
Velvetleaf (ABUTH); [8]
  ABUTH Obs: 13
Velvetleaf (ABUTH); [9]
  ABUTH Obs: 18
Velvetleaf (ABUTH); [10]
  ABUTH Obs: 65
Velvetleaf (ABUTH); [11]
  ABUTH Obs: 63
Velvetleaf (ABUTH); [12]
  ABUTH Obs: 73
Velvetleaf (ABUTH); [13]
  ABUTH Obs: 38
Velvetleaf (ABUTH); [14]
  ABUTH Obs: 55
Velvetleaf (ABUTH); [15]
  ABUTH Obs: 63
Velvetleaf (ABUTH); [16]
  ABUTH Obs: 68
Velvetleaf (ABUTH); [17]
  ABUTH Obs: 78

## O=C(O)CNCP(=O)(O)O [Glyphosate]
Giant foxtail (SETFA)
  SETFA Obs: 0%
